From US9062078B2, “Substituted 7-azabicyles and their use as orexin receptor modulators” (priority 2013, dated 2015)
Read-outs that look alike come from different tables or passages of the source.

Key:
[1] = target: human orexin 2 receptor (Homo sapiens (Human), UniProt O43614); test: Human orexin 2 receptor radioligand binding (competitive, [3H]-EMPA, HEK293 cell preparations)
[2] = target: rat orexin 1 receptor (Rattus norvegicus, UniProt P56718); test: Rat orexin 1 receptor radioligand binding (competitive, [3H]-SB674042, HEK293 cell preparations)
[3] = rat orexin 1 receptor, [3H]-SB674042 competition binding, read-out: rOX1 Ki (nm)
[4] = human orexin 2 receptor, [3H]-EMPA competition binding, read-out: hOX2 Ki (nm)

human orexin 2 receptor, sequence (O43614 whole entry): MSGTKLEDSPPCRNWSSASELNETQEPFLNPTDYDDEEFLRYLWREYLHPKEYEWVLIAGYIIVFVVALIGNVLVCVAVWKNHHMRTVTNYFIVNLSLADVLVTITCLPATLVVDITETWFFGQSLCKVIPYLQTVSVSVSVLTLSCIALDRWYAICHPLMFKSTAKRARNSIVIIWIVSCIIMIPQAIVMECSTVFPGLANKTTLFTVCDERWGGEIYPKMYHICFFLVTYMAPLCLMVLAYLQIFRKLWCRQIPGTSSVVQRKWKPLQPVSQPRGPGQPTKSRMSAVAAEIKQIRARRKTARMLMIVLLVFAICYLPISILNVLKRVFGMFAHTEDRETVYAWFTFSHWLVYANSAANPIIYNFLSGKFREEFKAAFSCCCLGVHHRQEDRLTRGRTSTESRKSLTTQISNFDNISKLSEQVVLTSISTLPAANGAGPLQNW

Row | SMILES | Ki ([1]; hOX2 Ki (nm)) | Ki [2, 3] | Ki [1, 4] | Ki ([2]; rOX1 Ki (nm))
1 | Cc1cc(C)nc(NC2CC3CCC2N3C(=O)c2ccccc2-n2nccn2)n1 (racemic) [Example 202, (±)-(2-(2H-1,2,3-triazol-2-yl)phenyl)(2-(((4,6-dimethylpyrimidin-2-yl)amino)-7-azabicyclo[2.2.1]heptan-7-yl)methanone] | 444 nM | 760 nM | – | –
2 | Cc1ccc(N2CCNCC2)c(C(=O)N2C3CCC2C(COc2ccccn2)C3)n1 (racemic) [Example 86, (±)-(6-methyl-3-(piperazin-1-yl)pyridin-2-yl)(2-((pyridin-2-yloxy)methyl)-7-azabicyclo[2.2.1]heptan-7-yl)methanone] | > 10000 nM | > 10000 nM | – | –
3 | O=C(c1cccc(F)c1-c1ccnnc1)N1[C@@H]2CC[C@H]1[C@H](Nc1cnc(C(F)(F)F)cn1)C2 [Example 264, (3-fluoro-2-(pyridazin-4-yl)phenyl)((1S,2R,4R)-2-((5-(trifluoromethyl)pyrazin-2-yl)amino)-7-azabicyclo[2.2.1]heptan-7-yl)methanone] | – | 1400 nM | > 10000 nM | –
4 | CCOc1ccc(C)nc1C(=O)N1C2CCC1C(COc1ccc(C(F)(F)F)cn1)C2 (racemic) [Example 48, (±)-(3-ethoxy-6-methylpyridin-2-yl)(2-(((5-(trifluoromethyl)pyridin-2-yl)oxy)methyl)-7-azabicyclo[2.2.1]heptan-7-yl)methanone] | 4700 nM | 3900 nM | – | –
5 | COc1c(F)cccc1C(=O)N1C2CCC1C(Nc1ccc(Br)cn1)C2 (racemic) [Example 218, (±)-(2-((5-bromopyridin-2-yl)amino)-7-azabicyclo[2.2.1]heptan-7-yl)(3-fluoro-2-methoxyphenyl)methanone] | – | – | 6700 nM | 2700 nM
6 | O=C(c1ncc(Cl)cc1-n1nccn1)N1C2CCC1C(COc1ccc(F)cn1)C2 (racemic) [Example 112, (±)-(5-chloro-3-(2H-1,2,3-triazol-2-yl)pyridin-2-yl)(2-(((5-fluoropyridin-2-yl)oxy)methyl)-7-azabicyclo[2.2.1]heptan-7-yl)methanone] | – | 480 nM | 1000 nM | –
7 | O=C(c1ncccc1-n1nccn1)N1C2CCC1C(COc1ccccn1)C2 (racemic) [Example 91, (±)-(3-(2H-1,2,3-triazol-2-yl)pyridin-2-yl)(2-((pyridin-2-yloxy)methyl)-7-azabicyclo[2.2.1]heptan-7-yl)methanone] | – | – | 3300 nM | 624 nM
8 | Cc1cnn(-c2ccc(C)nc2C(=O)N2C3CCC2C(COc2ncc(F)cn2)C3)c1 (racemic) [Example 103, (±)-(2-(((5-fluoropyrimidin-2-yl)oxy)methyl)-7-azabicyclo[2.2.1]heptan-7-yl)(6-methyl-3-(4-methyl-1H-pyrazol-1-yl)pyridin-2-yl)methanone] | 3600 nM | 1700 nM | – | –
9 | Cc1ccc(N(C)C)c(C(=O)N2C3CCC2C(COc2ccccn2)C3)n1 (racemic) [Example 73, (±)-(3-(dimethylamino)-6-methylpyridin-2-yl)(2-((pyridin-2-yloxy)methyl)-7-azabicyclo[2.2.1]heptan-7-yl)methanone] | – | 278 nM | 7900 nM | –
10 | Cc1coc(-c2ccc(C)nc2C(=O)N2[C@@H]3CC[C@H]2[C@H](COc2ccccn2)C3)n1 [Example 178, (6-methyl-3-(4-methyloxazol-2-yl)pyridin-2-yl)((1S,2R,4R)-2-((pyridin-2-yloxy)methyl)-7-azabicyclo[2.2.1]heptan-7-yl)methanone] | – | 964 nM | > 10000 nM | –
11 | CCOc1ccc(C)nc1C(=O)N1C2CCC1C(COc1ccc(Br)cn1)C2 (racemic) [Example 51, (±)-(2-(((5-bromopyridin-2-yl)oxy)methyl)-7-azabicyclo[2.2.1]heptan-7-yl)(3-ethoxy-6-methylpyridin-2-yl)methanone] | 1800 nM | – | – | 974 nM
12 | O=C(c1c(O)ccc2cccnc12)N1C2CCC1C(COc1ccccn1)C2 (racemic) [Example 159, (±)-(7-hydroxyquinolin-8-yl)(2-((pyridin-2-yloxy)methyl)-7-azabicyclo[2.2.1]heptan-7-yl)methanone] | – | 262 nM | 786 nM | –
13 | Cc1cnc(C(=O)N2C3CCC2C(Nc2cnc(C(F)(F)F)cn2)C3)c(-n2ccnn2)c1 (racemic) [Example 185, (±)-(5-methyl-3-(1H-1,2,3-triazol-1-yl)pyridin-2-yl)(2-(5-(trifluoromethyl)pyrazin-2-yl)amino)-7-azabicyclo[2.2.1]heptan-7-yl)methanone] | – | 1500 nM | 2700 nM | –
14 | CCOc1ccc(C)nc1C(=O)N1[C@@H]2CC[C@H]1[C@H](Nc1cnc(C(F)(F)F)cn1)C2 [Example 287, (3-ethoxy-6-methylpyridin-2-yl)((1S,2R,4R)-2-((5-(trifluoromethyl)pyrazin-2-yl)amino)-7-azabicyclo[2.2.1]heptan-7-yl)methanone] | – | 472 nM | 767 nM | –
15 | COc1c(F)cccc1C(=O)N1C2CCC1C(Nc1ccc(F)cn1)C2 (racemic) [Example 237, (±)-(3-fluoro-2-methoxyphenyl)(2-(((5-fluoropyridin-2-yl)amino)-7-azabicyclo[2.2.1]heptan-7-yl)methanone] | > 10000 nM | – | – | > 10000 nM
16 | O=C(c1cc(F)ccc1-n1nccn1)N1C2CCC1C(CNc1cnc3ccccc3n1)C2 (racemic) [Example 174, (±)-(5-fluoro-2-(2H-1,2,3-triazol-2-yl)phenyl)(2-((quinoxalin-2-ylamino)methyl)-7-azabicyclo[2.2.1]heptan-7-yl)methanone] | – | 373 nM | 1000 nM | –
17 | O=C(c1cncc2ccccc12)N1[C@@H]2CC[C@H]1[C@H](Nc1cnc(C(F)(F)F)cn1)C2 [Example 240, isoquinolin-4-yl((1S,2R,4R)-2-((5-(trifluoromethyl)pyrazin-2-yl)amino)-7-azabicyclo[2.2.1]heptan-7-yl)methanone] | – | 400 nM | 2100 nM | –
18 | Cn1cc(C(=O)N2C3CCC2C(COc2ccccn2)C3)c(-c2ccccc2)n1 (racemic) [Example 78, (±)-(1-methyl-3-phenyl-1H-pyrazol-4-yl)(2-((pyridin-2-yloxy)methyl)-7-azabicyclo[2.2.1]heptan-7-yl)methanone] | – | 418 nM | 3100 nM | –
19 | CCOc1ccc(C)nc1C(=O)N1C2CCC1C(Nc1ncc(C(F)(F)F)cn1)C2 (single isomer, unassigned) [Example 227, (±)-(3-ethoxy-6-methylpyridin-2-yl)(2-(5-(trifluoromethyl)pyrimidin-2-yl)amino)-7-azabicyclo[2.2.1]heptan-7-yl)methanone] | – | > 10000 nM | > 10000 nM | –
20 | CCOc1nccc(Br)c1C(=O)N1C2CCC1C(COc1ccccn1)C2 (racemic) [Example 161, (±)-(4-bromo-2-ethoxypyridin-3-yl)(2-((pyridin-2-yloxy)methyl)-7-azabicyclo[2.2.1]heptan-7-yl)methanone] | 1450 nM | 478 nM | – | –
21 | CCOc1ncc(-c2ccccc2)cc1C(=O)N1C2CCC1C(COc1ccccn1)C2 (racemic) [Example 160, (±)-(2-ethoxy-5-phenylpyridin-3-yl)(2-((pyridin-2-yloxy)methyl)-7-azabicyclo[2.2.1]heptan-7-yl)methanone] | – | 8700 nM | > 10000 nM | –
